System: female diet-induced obese (DIO) C57BL/6NHsd mice
Assay: Acute and chronic effects after subcutaneous treatment in female diet-induced obese (DIO) mice
Assay type: in vivo, mouse
Conditions: for Body mass compared to the DIO-Vehicle group / Whole body fat mass compared to the DIO-Vehicle group / Plasma insulin concentrations compared to DIO vehicle / Plasma total cholesterol concentrations compared to DIO vehicle / Liver mass on day 28 compared to DIO animals treated with vehicle / Plasma alanine aminotransferase concentration on day 28 compared to DIO vehicle: 30 μg/kg s.c. twice daily; for Body mass compared to the DIO-Vehicle group / Whole body fat mass compared to the DIO-Vehicle group / Body mass change: 28 days; for Body mass compared to the DIO-Vehicle group / Whole body fat mass compared to the DIO-Vehicle group / Plasma insulin concentrations compared to DIO vehicle / Plasma total cholesterol concentrations compared to DIO vehicle / Liver mass on day 28 compared to DIO animals treated with vehicle / Plasma alanine aminotransferase concentration on day 28 compared to DIO vehicle / 24 hour blood glucose profile following first treatment: in words; for Plasma insulin concentrations compared to DIO vehicle / Plasma total cholesterol concentrations compared to DIO vehicle: day 28; for 24 hour blood glucose profile following first treatment: 30 μg/kg s.c., day 1, fed DIO mice, vs DIO control; for Body mass change / Whole body fat mass change / Terminal liver mass (g) / Terminal plasma alanine aminotransferase (U/L) / Terminal plasma insulin (U/L) / Terminal plasma total cholesterol (mmol/L): twice-daily 30 μg/kg s.c.; for Body mass change: mean ± SEM; for Whole body fat mass change: QNMR predose vs day 26, mean ± SEM; for Terminal liver mass (g) / Terminal plasma alanine aminotransferase (U/L) / Terminal plasma insulin (U/L) / Terminal plasma total cholesterol (mmol/L): day 28, mean ± SEM
Procedure: Female C57BL/6NHsd mice were ordered group housed from Envigo RMS Inc., shipped group housed and remained group housed with shipped cage mates in shoebox caging with wood chip bedding until day 38 of the predose phase. At the study start mice were between 25-26 weeks old.
Mice were housed under vivarium conditions that included a 12 h light/dark cycle (light phase 04:00 AM-4:00 PM), room temperatures between 23-26° C. and a relative humidity between 30-70%. All animals had free access to water and a high fat diet (TD97366) for 16 weeks prior to pharmacological intervention (dosing phase). Feed was replaced with fresh feed weekly until and for the last time on day 38 of the predose phase. During the subsequent dosing phase, approximately 50% of the remaining feed were removed, replaced with fresh feed, and pellets were mixed evenly once per week.
On predose day 38, obese DIO mice were assigned to treatment groups (n=8) to match mean body masses between all DIO groups. An age-matched group with ad libitum access to a rodent maintenance diet (Teklad Global Diets Rodent 2014, pelleted) was included in the study as a lean control group. In the predosing phase from day 32 through 38, all study animals were treated with vehicle (Phosphate Buffered Saline, PBS, Gibco, without CaCl2 and MgCl2) once daily (s.c. approximately 0.2 mL/mouse).
On day 37 of the predose phase, the test article was diluted with PBS to a concentration of 100 μg/mL and aliquots of this stock solution were stored at approximately ≤−60° C. Stock aliquots were thawed for weekly use and thereafter stored in a refrigerator at approximately 4° C. The injected test article solution was prepared fresh once on each dosing day by diluting stock solution with PBS to achieve the desired concentration.
Mice were treated twice daily with a s.c. injection of PBS-vehicle or the test article for 28 days. The morning dosing was initiated and completed between 06:00 and 07:30 AM and the afternoon dosing between 2:00 and 3:30 PM. On day 28 of the dosing phase only the morning dose was administered. The applied volume was 5 ml/kg and the dose was adjusted to the most recent body mass recording of each individual.
Animals had unlimited access to water and feed during the experiment. On day 1 of the dosing phase approximately 5 μL of blood were collected via tail clips at hour 0, prior to the first s.c. dose of PBS-vehicle or test-article as well as 1, 2, 3, 4, 6, and 24 hours post-dose. Animals received the second s.c. dose of PBS-vehicle or test-article 8 hours after the first dose. The 24 hour blood collection of the blood glucose profile was performed prior to dosing on day 2. Glucose measurements were performed in whole blood and in duplicate or triplicate using Aviva glucometers.
Body mass was measured daily approximately between 06:00-07:30 AM from day 32 through 38 of the predosing phase and throughout the 28 days of the dosing phase. During the dosing phase mice were treated twice daily with either a s.c. injection of PBS-vehicle or test article.
To determine whole body fat mass Quantitative Nuclear Magnetic Resonance (QNMR) measurements were performed on predosing day 37 and on day 26 of the dosing phase. During the dosing phase mice were treated twice daily with either a s.c. injection of PBS-vehicle or test article.
On day 28 blood was collected prior to any other inlife activities for determination of plasma insulin concentrations. Then the morning dose was administered and necropsy was performed 4 hours post-dose. For this purpose animals were anesthetized with isoflurane and blood was collected by orbital bleeding.
On day 28 and 4 hours after the morning dose, blood was collected from mice under isoflurane anesthesia as described above. Then mice were killed and livers were collected and weighed.
Data are depicted as means±SEM. […] A One-Way ANOVA and Tukey Test were used for pairwise multiple comparisons of all groups (n=8/group, deviations from group size are indicated). […]

Structure (SMILES)	Body mass compared to the DIO-Vehicle group	Whole body fat mass compared to the DIO-Vehicle group	Plasma insulin concentrations compared to DIO vehicle	Plasma total cholesterol concentrations compared to DIO vehicle	Liver mass on day 28 compared to DIO animals treated with vehicle	Plasma alanine aminotransferase concentration on day 28 compared to DIO vehicle	24 hour blood glucose profile following first treatment	Body mass change (Table 9)	Whole body fat mass change (Table 9)	Terminal liver mass (g) (Table 9)	Terminal plasma alanine aminotransferase (U/L) (Table 9)	Terminal plasma insulin (U/L) (Table 9)	Terminal plasma total cholesterol (mmol/L) (Table 9)	Body mass change (Table 11)	Whole body fat mass change (Table 11)	Terminal liver mass (g) (Table 11)	Terminal plasma alanine aminotransferase (U/L) (Table 11)	Terminal plasma insulin (U/L) (Table 11)	Terminal plasma total cholesterol (mmol/L) (Table 11)
CCCCCCCCCCCCCCCC(=O)N[C@@H](CCC(=O)N[C@@H](CCC(=O)NCCCC[C@H](NC(=O)[C@H](CC(C)C)NC(=O)[C@H](CCCCN)NC(=O)[C@H](CO)NC(=O)[C@H](CC(C)C)NC(=O)[C@H](CC(=O)O)NC(=O)[C@H](CO)NC(=O)[C@@H](NC(=O)[C@H](Cc1ccccc1)NC(=O)[C@@H](NC(=O)CNC(=O)[C@H](CCC(N)=O)NC(=O)C(C)(C)NC(=O)[C@@H](N)Cc1c[nH]cn1)[C@@H](C)O)[C@@H](C)O)C(=O)N[C@@H](CCC(=O)O)C(=O)N[C@@H](CCCCN)C(=O)N[C@@H](CCC(N)=O)C(=O)N[C@@H](CCCNC(=N)N)C(=O)N[C@@H](CCC(N)=O)C(=O)NC(C)(C)C(=O)N[C@@H](CCC(=O)O)C(=O)N[C@@H](Cc1ccccc1)C(=O)N[C@H](C(=O)N[C@@H](CCC(=O)O)C(=O)N[C@@H](Cc1c[nH]c2ccccc12)C(=O)N[C@@H](CC(C)C)C(=O)N[C@@H](CCCCN)C(=O)N[C@@H](C)C(=O)NCC(=O)NCC(=O)N1CCC[C@H]1C(=O)N1CCC[C@H]1C(=O)N[C@@H](CO)C(=O)NC(C)(C)C(=O)N[C@@H](CCCCN)C(=O)N1CCC[C@H]1C(=O)N1CCC[C@H]1C(=O)N1CCC[C@H]1C(=O)N[C@@H](CCCCN)C(N)=O)[C@@H](C)CC)C(=O)O)C(=O)O [SEQ ID NO: 6, H-Aib-Q-G-T-F-T-S-D-L-S-K-L-K[gGlu-gGlu-Palm]-E-K-Q-R-Q-Aib-E-F-I-E-W-L-K-A-G-G-P-P-S-Aib-K-P-P-P-K-NH2]	statistically significant decrease in body mass	statistically significantly reduction in whole body fat mass	statistically significant reduction in plasma insulin concentrations	statistically significant reduction in plasma total cholesterol concentrations	statistically significantly lower liver mass	statistically significantly lower plasma alanine aminotransferase concentration	decrease in blood glucose concentrations below concentrations observed in DIO control mice	-5.36 ± 0.36 g	-4.33 ± 0.42 g	+1.16 ± 0.04 g	+62.25 ± 9.79 U/L	+31.07 ± 5.26 U/L	+5.11 ± 0.12 mmol/L	–	–	–	–	–	–
CCCCCCCCCCCCCCCC(=O)N[C@@H](CCC(=O)N[C@@H](CCC(=O)NCCCC[C@H](NC(=O)[C@H](CC(C)C)NC(=O)[C@H](CCCCN)NC(=O)[C@H](CO)NC(=O)[C@H](CC(C)C)NC(=O)[C@H](CC(=O)O)NC(=O)[C@H](CO)NC(=O)[C@@H](NC(=O)[C@H](Cc1ccccc1)NC(=O)[C@@H](NC(=O)CNC(=O)[C@H](CCC(N)=O)NC(=O)C(C)(C)NC(=O)[C@@H](N)Cc1c[nH]cn1)[C@@H](C)O)[C@@H](C)O)C(=O)N[C@@H](CCC(=O)O)C(=O)N[C@@H](CCC(=O)O)C(=O)N[C@@H](CCC(N)=O)C(=O)N[C@@H](CCCNC(=N)N)C(=O)N[C@@H](CCC(N)=O)C(=O)NC(C)(C)C(=O)N[C@@H](CCC(=O)O)C(=O)N[C@@H](Cc1ccccc1)C(=O)N[C@H](C(=O)N[C@@H](CCC(=O)O)C(=O)N[C@@H](Cc1c[nH]c2ccccc12)C(=O)N[C@@H](CC(C)C)C(=O)N[C@@H](CCCCN)C(=O)N[C@@H](C)C(=O)NCC(=O)NCC(=O)N1CCC[C@H]1C(=O)N1CCC[C@H]1C(=O)N[C@@H](CO)C(=O)NC(C)(C)C(=O)N[C@@H](CCCCN)C(=O)N1CCC[C@H]1C(=O)N1CCC[C@H]1C(=O)N1CCC[C@H]1C(=O)N[C@@H](CCCCN)C(N)=O)[C@@H](C)CC)C(=O)O)C(=O)O [SEQ ID NO: 9, H-Aib-Q-G-T-F-T-S-D-L-S-K-L-K[gGlu-gGlu-Palm]-E-E-Q-R-Q-Aib-E-F-I-E-W-L-K-A-G-G-P-P-S-Aib-K-P-P-P-K-NH2]	statistically significant decrease in body mass	statistically significantly reduction in whole body fat mass	statistically significant reduction in plasma insulin concentrations	statistically significant reduction in plasma total cholesterol concentrations	statistically significantly lower liver mass	statistically significantly lower plasma alanine aminotransferase concentration	decrease in blood glucose concentrations below concentrations observed in DIO control mice	–	–	–	–	–	–	-10.03 ± 2.33 g	-5.29 ± 2.32 g	+1.11 ± 0.06 g	+57.13 ± 7.33 U/L	+38.95 ± 7.30 U/L	+3.97 ± 0.12 mmol/L

— US10519211B2, “Compounds as peptidic GLP1/glucagon/GIP receptor agonists” (SANOFI, priority 2016, dated 2019)
